Data: patent US20240360146A1, “BRUTON'S TYROSINE KINASE AND MUTANT DEGRADER, COMPOSITION AND APPLICATION THEREOF” (HANGZHOU HEALZEN THERAPEUTICS CO., LTD., priority 2021, published 2024)

Columns and labels:
[1] = target: T1, BTK (Homo sapiens, UniProt Q06187); test: BTK degradation activity test in Mino cells; type: cell-based; conditions: 16 h incubation, Western blot or Elisa
T1 construct: endogenous in cells; host or cells: Mino cells
Outline: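 DC50 derived by curve fitting of BTK degradation rates versus untreated control across compound concentrations. Mino cells were exposed for 16 h; BTK levels in lysates, normalised via BCA protein, measured by Western blot or ELISA.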

[2] = target: T2, BTK-C481S (Homo sapiens, UniProt Q06187, C481S); test: BTK-C481S degradation activity test in HEK293 OE BTK-C481S cells; type: cell-based; conditions: 24 h incubation, Western blot or Elisa
T2 construct: expressed in transfected cells; host or cells: HEK293 OE BTK-C481S (overexpressing) cell line
T2 sequence (Q06187 whole entry C481S): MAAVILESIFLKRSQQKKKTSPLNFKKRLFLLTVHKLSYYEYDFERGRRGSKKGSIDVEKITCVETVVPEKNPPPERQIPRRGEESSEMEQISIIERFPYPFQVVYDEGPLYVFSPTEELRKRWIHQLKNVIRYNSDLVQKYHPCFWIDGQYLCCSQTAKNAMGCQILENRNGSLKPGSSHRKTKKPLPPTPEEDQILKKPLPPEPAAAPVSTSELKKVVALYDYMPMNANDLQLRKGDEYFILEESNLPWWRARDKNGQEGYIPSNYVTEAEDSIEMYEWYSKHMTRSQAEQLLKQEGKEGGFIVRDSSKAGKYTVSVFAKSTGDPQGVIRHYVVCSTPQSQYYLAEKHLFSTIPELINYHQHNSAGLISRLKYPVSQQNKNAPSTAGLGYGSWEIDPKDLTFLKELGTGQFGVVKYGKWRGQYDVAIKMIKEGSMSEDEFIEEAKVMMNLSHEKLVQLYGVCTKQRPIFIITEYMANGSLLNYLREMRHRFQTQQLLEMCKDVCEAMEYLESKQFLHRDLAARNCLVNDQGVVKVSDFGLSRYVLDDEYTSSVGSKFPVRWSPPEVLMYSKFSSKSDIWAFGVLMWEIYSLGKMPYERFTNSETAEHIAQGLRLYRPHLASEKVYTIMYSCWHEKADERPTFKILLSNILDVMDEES
Procedure: HEK293 OE BTK-C481S cell line cells were seeded at 500,000 to 1,000,000 cells/well in a 6-well plate. The compounds were diluted to different concentrations and added to the plate, and after 24 h of incubation, the cells were harvested. After lysing the cells, the total protein concentration in each well was determined using the BCA method. The amount of BTK-C481S was determined using Western blot or Elisa method. The amount of undegraded BTKC481S protein at each drug concentration was compared with the amount of BTKC481S protein in the blank control group to calculate the degradation rate. The degradation curve was drawn based on the degradation rate at each concentration, and the half degradation concentration (DC50) was calculated by fitting.

[3] = test system: OCI-LY10 cells; test: Inhibitory activity on OCI-LY10 cell proliferation (MTS); type: cell-based; conditions: Homo sapiens, 72 h
Outline: (§1)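 Cells seeded at 10000/well, treated with compounds from 1000 nM (4-fold, 8 points) for 72 h (OCI-LY10) or 168 h (Mino) at 37° C. MTS added for 2 h, stopped with SDS, absorbance read at 490 and 650 nm; IC50 from dose-response fit.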

[4] = test system: Mino cells; test: Inhibitory activity on Mino cell proliferation (MTS); type: cell-based; conditions: Homo sapiens, 168 h incubation
Outline: as §1

[5] = Stability of compounds in human liver microsome; type: in vitro ADME; conditions: human liver microsomes, NADPH, 37° C., sampling 0-120 min; read-out: Human liver microsome T1/2
Outline: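 Compound incubated at 37° C with human liver microsomes (1 mg in 1 mL PBS) plus NADPH. Samples taken at 0, 15, 30, 60 and 120 min, quenched into internal standard solution and analysed by LC/MS; metabolism calculated from peak area.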

[6] = Mouse absorption test (pharmacokinetic properties in mice); type: in vivo; conditions: intragastric, 30 mg/kg; for DNAUC: DNAUC = AUC/Dose; for Cmax: mouse, plasma, po
Procedure: […] The blood collection time points for intragastric administration were 0.25, 0.5, 1, 2, 4, 6, 8, and 24 h. 0.5 mL of blood was taken with a capillary tube from the orbit, and placed in an EP tube containing EDTA anticoagulant. The EP tube was shaken gently for mixing uniformly, and centrifuged at 3500 rpm and 4° C. for 10 min. The supernatant, i.e., plasma, was taken. Analysis was performed using LC-MS/MS.

[7] = test system: OCL-LY10 transplanted tumors; test: Chronic efficacy test, OCL-LY10 subcutaneous transplanted tumor model; type: in vivo; conditions: NOD/SCID mice, intragastric 10 mg/kg, 3 weeks
Procedure: NOD/SCID mice were subcutaneously inoculated with OCL-LY10 cells to establish a tumor model. When the tumors grew to about 100 mm^3, the mice were administered with drugs in groups. The mode of administration was as follows: the test compound was administered intragastrically at 10 mg/kg; The changes in body weight and tumor size of the mice were measured twice per week. After 3 weeks, the mice were sacrificed by cervical dislocation, and the efficacy of the compounds on transplanted tumors in OCL-LY10 mice was examined.

[8] = test system: B cell activation; test: Test of inhibition of B cell activation in PBMC (Anti-Human IgM stimulation, flow cytometry); type: cell-based; conditions: Anti-Human IgM 50 μg/mL, 18 h
Procedure: The PBMC cell cryopreservation liquid was resuspended in 1640 complete culture medium to an appropriate concentration, and inoculated into a 96-well round-bottom plate at 15×10^4 cells/90 μL/well, and the culture plate was placed in a CO2 incubator for incubation.
The compounds to be tested were formulated into 10 mM stock solutions which were then fold-serially diluted with DMSO, and then diluted with 1640 complete culture liquid to make the concentration 100 times of the final concentration. The compound diluent was added into the cell solution in each well at 1 μL/well and shaken gently. 2 duplicate wells were set up for each concentration. The dosed cell plate was placed in a 37° C. incubator with 5% carbon dioxide and incubated for 1 h.
3. The dosed cell culture plate was taken and 10 μL of Anti-Human IgM-UNLB was added into the well corresponding to the compound to be tested; in 2 groups of cell blank wells, only 10 μL of Anti-Human IgM-UNLB was added; and in 3 groups of cell blank wells, no reagents and antibodies were added. The final concentration of Anti-Human IgM-UNLB was 50 μg/mL.
4. The loaded cell culture plate was placed in a 37° C. incubator with 5% carbon dioxide and incubated for 18 h. Total system: 90 μL PBMC+1 μL compound+10 μL Anti-Human IgM-UNLB
5. Samples were collected and stained, and the cells were analyzed using flow cytometry to obtain data. (When analyzed using flow cytometry, lymphocytes were gated).

[9] = Beagle dog absorption test (PK in dogs); type: in vivo; conditions: plasma, po, intragastric, 10 mg/kg
Procedure: Beagle dogs were used as experimental animals, and drugs were administered intragastrically at 10 mg/kg. The blood collection time points for intragastric administration were 0, 0.25, 0.5, 1, 2, 4, 6, 8, 10, 12, and 24 h. 1.0 mL of blood was collected from the jugular vein, placed in an EDTAK2 centrifuge tube, and placed on an ice bath, centrifuged at 5000 rpm and 4° C. for 10 min to obtain the supernatant, i.e., plasma. 0.1 ml of the plasma was taken for analysis by LC-MS/MS.

T1 sequence (Q06187 whole entry): as the sequence (Q06187 whole entry C481S) above, with S481C counted along it

DC50 [1] [nM]	DC50 [2] [nM]	IC50 [3] [nM]	half-life at 0.97 µg/mL [5] [min]	DNAUC [6] [ng/ml*h/mpk]	Cmax [6] [ng/mL]	AUC [9] [ng·h/mL]	Compound	IC50 [4] [nM]	TGI (%) [7] [%]	Inhibition ratio % ([8]; concentration 0.16 nM) [%]	Inhibition ratio % ([8]; concentration 0.80 nM) [%]
< 1	< 10	0.9	> 30	3614	6190	–	CN1CCN([C@@H]2CCCN(c3nnc(C(N)=O)c(Nc4ccc(N5CCN(C[C@@H]6CCN(c7ccc8c(c7)C(=O)N(C7CCC(=O)NC7=O)C8=O)C6)CC5)c(F)c4)n3)C2)C1=O (stereo partly drawn) [Compound 131, 5-((4-(4-(((3S)-1-(2-(2,6-dioxopiperidin-3-yl)-1,3-dioxoisoindolin-5-yl)pyrrolidin-3-yl)methyl)piperazin-1-yl)-3-fluorophenyl)amino)-3-((R)-3-(3-methyl-2-oxoimidazolin-1-yl)piperidin-1-yl)-1,2,4-triazin-6-carboxamide]	3.61	96.67	60.8	100
< 1	–	< 1	> 30	2430	7800	1690	CN1CCN([C@@H]2CCCN(c3nnc(C(N)=O)c(Nc4ccc(N5CCN(C[C@H]6CCN(c7ccc8c(c7)C(=O)N(C7CCC(=O)NC7=O)C8=O)C6)CC5)c(F)c4)n3)C2)C1=O (stereo partly drawn) [Compound 132, 5-((4-(4-(((3R)-1-(2-(2,6-dioxopiperidin-3-yl)-1,3-dioxoisoindolin-5-yl)pyrrolidin-3-yl)methyl)piperazin-1-yl)-3-fluorophenyl)amino)-3-((R)-3-(3-methyl-2-oxoimidazolin-1-yl)piperidin-1-yl)-1,2,4-triazin-6-carboxamide]	2.55	–	–	–
< 1	< 10	0.12	> 30	–	–	6590	Cc1cc(N2CCC(CN3CCN(c4ccc(Nc5nc(N6CCC[C@@H](N7CCN(C)C7=O)C6)nnc5C(N)=O)cc4F)CC3)CC2)ccc1N1CCC(=O)NC1=O [Compound 257, (R)-5-((4-(4-((1-(4-(2,4-dioxotetrahydropyrimidin-1(2H)-yl)-3-methylphenyl)piperidin-4-yl)methyl)piperazin-1-yl)-3-fluorophenyl)amino)-3-(3-(3-methyl-2-oxoimidazolidin-1-yl)piperidin-1-yl)-1,2,4-triazin-6-carboxamide]	< 0.26	98.74	100	100
–	–	–	–	–	–	246	NC(=O)c1ncc(N2CCCCC2)nc1Nc1ccc(C2CCN(C[C@H]3CCN(c4ccc5c(c4)C(=O)N(C4CCC(=O)NC4=O)C5=O)C3)CC2)cc1 (stereo partly drawn) [Compound c, reference compound]	–	67.59	10.2	16.3
